Results: patent publication US8598157B2, “5-alkynyl-pyridines” (Boehringer Ingelheim International GmbH, priority 2011, dated 2013)

How the values were obtained:
PI3Kalpha = PI3Kalpha (Homo sapiens (Human), UniProt P42336); experiment: Inhibition of PI3Kalpha-induced PIP-2 phosphorylation (filter-binding assay); format: biochemical; conditions: 33P-ATP, p85alpha/His-p110alpha, read-out: IC50 PI3Kα
Text: Inhibition of PI3Kalpha-Induced PIP-2 Phosphorylation
This PI3Kalpha assay provides an IC50 value indicative of the activity of the compounds to inhibit PI3 kinase alpha activity. Inhibition of PI3 kinase would be expected to be indicative of activity in treating conditions of excessive or anomalous cell proliferation, such as cancers. See also J. A. Engelman, Nature Reviews Cancer, 2009, 9, 550-562; A. Carnero, Expert Opin. Investig. Drugs, 2009, 18, 1265-1277 and P. Liu et al., Nature Reviews Drug Discovery, 2009, 8, 627-64.
Method Type: Filter-Binding-Assay
Aliquoted in desired amounts and stored at −80° C. Final assay concentration 25 ng/well • Phosphotyrosin PDGFRbeta-peptide H-CGG-pY-[…]-pY-VPMLDM-NH2 was synthesized by Jerini Peptide Technologies (JPT) and used in a final conc. of 1.7 μM (stock 100 μM prepared in Assay buffer with DTT, aliquoted in desired amounts and stored at −80° C.) • Cold ATP (from Sigma; A-7699), 100 μM stock solution in H2O, use 1 μM final concentration in assay • [33P]-ATP, 370 MBq/ml from Amersham (#AH9968), use 0.5 μCi/well (10 mCi/ml) • Clear 96-well plates from Greiner (#655 162) • Filter plates: Perkin Elmer UniFilter GF/B #6005177 • Microscint 0 (from Perkin Elmer, #6013611) 2. Assay Procedure
The substrate-containing lipid vesicles are dissolved to a concentration of 0.637 mg lipid blend/ml assay buffer (with BSA, freshly added) in 50 ml Falcon->keep on ice, followed by ultrasonication (pulse of 15 sec followed by a pause of 10 sec, 4×). Compounds are serially diluted in assay buffer+6% DMSO and […] of each dilution is added per well of a 96-well plate (compounds are tested in duplicates) and mixed with 30 μl of the lipid vesicles containing PDGFR-Peptide ([…]) and PI3K alpha (25 ng/well final). The mixture is then incubated for 20 minutes at room temperature. Subsequently, 20 μl of assay buffer containing […] cold ATP and 0.5 μCi/20 μl 33P-ATP are added. The plates are then incubated at room temperature for 120 minutes (shaking with 300 rpm).
The reaction mix is transferred onto filter plates using “filtermate harvester” from Packard: filter plates are rinsed with PBS, then the reaction mix is filtered onto the filter plate, washed 5 times with PBS and are allowed to dry for 30-60 minutes at 50° C.
The plate bottom is sealed with Perkin Elmer white adhesive foil and 25 μl/well Microscint( ) are added, the top is covered with transparent adhesive foil and the plate is measured with Wallac Trilux 1450 Microbeta Counter.
As positive control serve wells containing vehicle controls (1% DMSO in assay buffer), showing non-inhibited kinase activity (high values). Wells containing assay buffer instead of enzyme can serve as control for background activity (low values).
Calculate IC50 values using the Smiley program (based on GrapPad Prism)

H460 cells = experiment: alamarBlue H460 cell assay (antiproliferative/cytotoxicity); format: cell-based; conditions: NCI-H460; H460 human lung carcinoma cells
Text: (§1) The H460, MB453, U87, MCF7 and BT474 alamarBlue cell assays provide EC50 values indicative of the antiproliferative or cytotoxic effects of the compounds to respectively the H460 (human non small cell line cancer), MB-453 (breast cancer cell line), U87 (glioblastoma cell line), MCF7 (breast cancer cell line) and BT474 (breast cancer cell line). As known in the field, antiproliferative or cytotoxic effect against this cell lines would be expected to be indicative of activity in treating lung, breast and brain cancers. See R. Marone R et al. Biochim. Biophys. Acta. 2008 January; 1784(1):159-85. S. Yaguchi et al., J. Natl. Cancer Inst. 2006 Apr. 19; 98(8):545-56.
(§2) Method Type: Antiproliferative/Cytotoxicity
(§3) alamarBlue® is designed to provide a rapid and sensitive measure of cell proliferation and cytotoxicity in various human and animal cell lines. The assay is based on the reduction of alamarBlue in the reducing environment of living (metabolically active) cells. In the presence of added cytotoxic or antiproliferative compounds, the innate metabolic activity ceases.
(§4) AlamarBlue is soluble and stable in culture medium. Measurements are made fluorometrically by exciting at 530-560 nm and measuring emission at 590 nm. In reporting percent alamarBlue reduction by monitoring fluorescence, data are expressed as fluorescence emission intensity units as a function of time of incubation.
(§5) 3. Equipment • 96-well plates, flat bottom (Falcon, Cat. No.: 353072) • 96-well plates, U-shaped (Costar, Cat. No.: 3799) • CO2-Incubator • Microplate Reader, Spectramax Plus, Molecular Devices 4. Typical Procedure • Day 0: Seed 3000 BT-474 cells (IMDM/5% FCS, 1% NEAA, 1% Sodiumpyruvat) in 150 μl medium into a 96-well plate, flat bottom (include mediumblank). Incubate plates at 37° C. in a CO2 incubator overnight. • Day 1: Dilute compounds to a concentration 40 μM->1:3 in medium, 10 dilution steps, in 96-well plates. • Add 50 μl per well of each dilution (total volume per well 200 μl; final conc. of cpds: 10 μM->1:3). If required, test further dilutions. • All concentrations are tested in duplicates. • Controls: Cells w/o cpd. (+50 μl medium/DMSO). • Cells are incubated with compounds for 5-6 days. • Day 6 or 7: Add 25 μl of alamarBlue solution to each well and incubate for 8 hours at 37° C. Measure fluorescence by exciting at 530-560 nm and measuring emission at 590 nm. 5. Evaluation • Subtract average value for medium blank from sample readings • Calculate EC50 using GraphPad Prism (Fifty)

MB453 cells = experiment: alamarBlue MB453 cell assay (antiproliferative/cytotoxicity); format: cell-based; conditions: Homo sapiens; MDA MB 453 breast cancer cell line
Text: as §1, §2, §3, §4, §5

U87 cells = experiment: U87 cell assay (antiproliferative/cytotoxicity); format: cell-based; conditions: U-87MG human glioblastoma cells
Text: as §1, §2, §3, §4, §5

BT474 cells = experiment: alamarBlue BT474 cell assay (antiproliferative/cytotoxicity); format: cell-based; conditions: BT-474 human breast cancer cell line
Text: as §1, §2, §3, §4, §5

Chain of PI3Kalpha (P42336 whole entry): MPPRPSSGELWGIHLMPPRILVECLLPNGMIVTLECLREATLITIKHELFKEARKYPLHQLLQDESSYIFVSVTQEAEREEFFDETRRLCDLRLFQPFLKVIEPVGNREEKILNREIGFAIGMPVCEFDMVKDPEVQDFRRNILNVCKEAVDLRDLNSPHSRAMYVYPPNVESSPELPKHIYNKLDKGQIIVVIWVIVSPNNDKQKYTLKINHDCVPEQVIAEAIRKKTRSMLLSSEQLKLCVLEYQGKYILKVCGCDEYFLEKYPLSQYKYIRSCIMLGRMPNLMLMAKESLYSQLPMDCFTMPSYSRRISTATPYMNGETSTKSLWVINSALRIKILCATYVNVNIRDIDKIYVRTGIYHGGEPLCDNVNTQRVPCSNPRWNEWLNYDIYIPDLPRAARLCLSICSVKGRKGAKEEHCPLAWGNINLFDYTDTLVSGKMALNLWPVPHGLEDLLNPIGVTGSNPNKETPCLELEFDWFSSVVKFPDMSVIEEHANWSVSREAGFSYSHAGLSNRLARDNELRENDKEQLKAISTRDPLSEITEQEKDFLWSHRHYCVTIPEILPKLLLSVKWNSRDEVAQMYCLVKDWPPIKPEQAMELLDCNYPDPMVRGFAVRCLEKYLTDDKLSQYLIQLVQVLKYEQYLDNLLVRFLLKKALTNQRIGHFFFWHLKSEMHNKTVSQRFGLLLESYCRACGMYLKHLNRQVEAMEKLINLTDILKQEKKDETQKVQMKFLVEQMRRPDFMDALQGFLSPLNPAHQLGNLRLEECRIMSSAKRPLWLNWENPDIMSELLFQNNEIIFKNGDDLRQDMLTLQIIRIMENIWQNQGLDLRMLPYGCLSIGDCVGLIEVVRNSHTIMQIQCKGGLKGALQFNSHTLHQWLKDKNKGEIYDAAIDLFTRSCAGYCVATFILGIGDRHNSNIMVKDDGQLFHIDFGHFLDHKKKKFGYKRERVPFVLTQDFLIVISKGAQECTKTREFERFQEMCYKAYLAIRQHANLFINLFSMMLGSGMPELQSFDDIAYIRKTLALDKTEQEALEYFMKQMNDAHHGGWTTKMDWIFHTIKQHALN

Row | SMILES | IC50 (PI3Kalpha) [nM] | EC50 (H460 cells) [nM] | EC50 (MB453 cells) [nM] | EC50 (U87 cells) [nM] | EC50 (BT474 cells) [nM]
1 | CCc1ncnc(NC)c1C#Cc1cnc(C)c(NS(C)(=O)=O)c1 [Example I-33, N-[5-(4-Ethyl-6-methylamino-pyrimidin-5-ylethynyl)-2-methyl-pyridin-3-yl]-methanesulfonamide] | 49 |  |  |  | 
2 | CCc1nc(N)nc(N2CCC(O)CC2)c1C#Cc1cnc(C)c(NS(C)(=O)=O)c1 [Example I-35, N-{5-[2-Amino-4-ethyl-6-(4-hydroxy-piperidin-1-yl)-pyrimidin-5-ylethynyl]-2-methyl-pyridin-3-yl}-methanesulfonamide] | 5 | 25000 |  |  | 
3 | CCc1nc(N)nc(N2CCCCC2)c1C#Cc1cnc(C)c(NS(C)(=O)=O)c1 [Example I-36, N-[5-(2-Amino-4-ethyl-6-piperidin-1-yl-pyrimidin-5-ylethynyl)-2-methyl-pyridin-3-yl]-methanesulfonamide] | 5 |  |  |  | 
4 | CCc1nc(N)nc(N2CCC(C)(O)CC2)c1C#Cc1cnc(C)c(NS(C)(=O)=O)c1 [Example I-43, N-{5-[2-Amino-4-ethyl-6-(4-hydroxy-4-methyl-piperidin-1-yl)-pyrimidin-5-ylethynyl]-2-methyl-pyridin-3-yl}-methanesulfonamide] | 3 | 3670 |  |  | 
5 | Cc1ncc(C#Cc2c(C)ncnc2NC(C)C)cc1NS(=O)(=O)c1ccccc1 [Example I-59, N-[5-(4-Isopropylamino-6-methyl-pyrimidin-5-ylethynyl)-2-methyl-pyridin-3-yl]-benzenesulfonamide] | 6 | 723 | 1930 | 1000 | 5000
6 | Cc1ncc(C#Cc2c(C)ncnc2N2CCOC[C@H]2C)cc1NS(=O)(=O)c1ccccc1 [Example I-69, N-{2-Methyl-5-[4-methyl-6-((R)-3-methyl-morpholin-4-yl)-pyrimidin-5-ylethynyl]-pyridin-3-yl}-benzenesuIfonamide] | 2 |  |  |  | 749
7 | Cc1ncc(C#Cc2c(C)ncnc2N2CCOC[C@@H]2C)cc1NS(=O)(=O)c1ccccc1 [Example I-70, N-{2-Methyl-5-[4-methyl-6-((S)-3-methyl-morpholin-4-yl)-pyrimidin-5-ylethynyl]-pyridin-3-yl}-benzenesulfonamide] | 0.2 |  |  |  | 615
8 | COCCN(C)c1ncnc(C)c1C#Cc1cnc(C)c(NS(=O)(=O)c2ccccc2)c1 [Example I-71, N-(5-{4-[(2-Methoxy-ethyl)-methyl-amino]-6-methyl-pyrimidin-5-ylethynyl}-2-methyl-pyridin-3-yl)-benzenesulfonamide] | 5 | 1620 | 2100 | 1190 | 1500
9 | Cc1ncc(C#Cc2c(C)ncnc2N(C)CC2CCOC2)cc1NS(=O)(=O)c1ccccc1 (stereo not drawn) [Example I-72, N-(2-Methyl-5-{4-methyl-6-[methyl-(tetrahydro-furan-3-ylmethyl)-amino]-pyrimidin-5-ylethynyl}-pyridin-3-yl)-benzenesulfonamide] | 8 |  |  |  | 5160
10 | COC1CCN(c2ncnc(C)c2C#Cc2cnc(C)c(NS(=O)(=O)c3ccccc3)c2)CC1 [Example I-74, N-{5-[4-(4-Methoxy-piperidin-1-yl)-6-methyl-pyrimidin-5-ylethynyl]-2-methyl-pyridin-3-yl}-benzenesulfonamide] | 2 | 703 | 987 | 557 | 400

Continued, in another order:

Row | IC50 (PI3Kalpha) [nM] | SMILES | EC50 (H460 cells) [nM] | EC50 (MB453 cells) [nM] | EC50 (U87 cells) [nM] | EC50 (BT474 cells) [nM]
11 | 0.55 | CCc1ncnc(N2CCC(C)(O)CC2)c1C#Cc1cnc(C)c(NS(C)(=O)=O)c1 [Example I-42, N-{5-[4-Ethyl-6-(4-hydroxy-4-methyl-piperidin-1-yl)-pyrimidin-5-ylethynyl]-2-methyl-pyridin-3-yl}-methanesulfonamide] | 295 |  |  | 
12 | 2 | CCc1ncnc(N2CCCCC2)c1C#Cc1cnc(C)c(NS(C)(=O)=O)c1 [Example I-44, N-[5-(4-Ethyl-6-piperidin-1-yl-pyrimidin-5-ylethynyl)-2-methyl-pyridin-3-yl]-methanesulfonamide] | 117 |  |  | 
13 | 2 | Cc1ncc(C#Cc2c(C)ncnc2N2CCCOCC2)cc1NS(=O)(=O)c1ccccc1 [Example I-73, N-[2-Methyl-5-(4-methyl-6-[1,4]oxazepan-4-yl-pyrimidin-5-ylethynyl)-pyridin-3-yl]-benzenesulfonamide] |  |  |  | 1940
14 | 1 | CCc1ncnc(N2CCOCC2)c1C#Cc1cnc(OC)c(NS(C)(=O)=O)c1 [Example I-75, N-[5-(4-Ethyl-6-morpholin-4-yl-pyrimidin-5-ylethynyl)-2-methoxy-pyridin-3-yl]-methanesulfonamide] |  |  |  | 247
15 | 2 | CCc1ncnc(N2CCOCC2)c1C#Cc1cnc(OC)c(NS(=O)(=O)CC)c1 [Example I-76, Ethanesulfonic acid [5-(4-ethyl-6-morpholin-4-yl-pyrimidin-5-ylethynyl)-2-methoxy-pyridin-3-yl]-amide] |  |  |  | 342
16 | 1 | CCc1ncnc(N2CCOCC2)c1C#Cc1cnc(OC)c(NS(=O)(=O)C2CC2)c1 [Example I-77, Cyclopropanesulfonic acid [5-(4-ethyl-6-morpholin-4-yl-pyrimidin-5-ylethynyl)-2-methoxy-pyridin-3-yl]-amide] |  |  |  | 263
17 | 2 | CCc1ncnc(N2CCOCC2)c1C#Cc1cnc(OC)c(NS(=O)(=O)CCOC)c1 [Example I-78, 2-Methoxy-ethanesulfonic acid [5-(4-ethyl-6-morpholin-4-yl-pyrimidin-5-ylethynyl)-2-methoxy-pyridin-3-yl]-amide] |  |  |  | 469
18 | 0.75 | CCc1ncnc(N2CCOCC2)c1C#Cc1cnc(OC)c(NS(=O)(=O)c2cccs2)c1 [Example I-79, Thiophene-2-sulfonic acid [5-(4-ethyl-6-morpholin-4-yl-pyrimidin-5-ylethynyl)-2-methoxy-pyridin-3-yl]-amide] |  |  |  | 20
19 | 0.55 | CCc1ncnc(N2CCOCC2)c1C#Cc1cnc(OC)c(NS(=O)(=O)c2ccco2)c1 [Example I-80, Furan-2-sulfonic acid [5-(4-ethyl-6-morpholin-4-yl-pyrimidin-5-ylethynyl)-2-methoxy-pyridin-3-yl]-amide] |  |  |  | 40
